Measured values: US20060035942A1, “Fungicidal combinations of active substances” (priority 2002, published 2006)

system: Pyrenophora teres; experiment: Pyrenophora teres test (barley)/curative; type: in vivo; settings: curative, application rate 100 g/ha, evaluation 7 days after inoculation
Description: Pyrenophora teres Test (Barley)/Curative • Solvent: 25 parts by weight of N,N-dimethylacetamide • Emulsifier: 0.6 part by weight of alkylaryl polyglycol ether To produce a suitable preparation of active compound, 1 part by weight of active compound is mixed with the stated amounts of solvent and emulsifier, and the concentrate is diluted with water to the desired concentration. To test for curative activity, young plants are sprayed with a conidia suspension of Pyrenophora teres. The plants remain in an incubation cabin at 20° C. and 100% relative atmospheric humidity for 48 hours. The plants are then sprayed with the preparation of active compound at the stated application rate. The plants are placed in a greenhouse at a temperature of about 20° C. and a relative atmospheric humidity of about 80%. Evaluation is carried out 7 days after the inoculation. 0% means an efficacy which corresponds to that of the control, whereas an efficacy of 100% means that no infection is observed.

Q: For `CC(C)(C)C(O)(CCc1ccc(Cl)cc1)Cn1cncn1` (stereo not drawn) [Ex. (III)], which Efficacy in % is on record?
A: 22%

Q: With `OC(Cc1ccccc1Cl)(Cn1nc[nH]c1=S)C1(Cl)CC1` (stereo not drawn) [Ex. (II)] as the compound, how does the Efficacy in % read?
A: 56%

Q: Which Efficacy in % does the source give for `CON=C(C(=O)OC)c1ccccc1CO/N=C(\C)c1cccc(C(F)(F)F)c1` [Ex. (I)] here?
A: 67%
